# Calls of active or inactive are those of the source. The calls are words filed in the database; no cut-off is given here.
# Key:
# Escherichia coli [1] = assay: Induction of strand scission in pBR322 DNA assessed as formation of linear duplex and nicked form at 100 uM in presence of copper
# Escherichia coli [2] = assay: Induction of strand scission in pBR322 DNA assessed as conversion from supercoiled form to nicked circular form at 50 uM in presence of copper
# Escherichia coli [3] = assay: Induction of strand scission in pBR322 DNA in presence of copper
# Escherichia coli [4] = assay: Induction of strand scission in pBR322 DNA in presence of ferrous ion
compound,measurement,setting,value
CC(C)=CCc1c(O[C@@H]2O[C@H](CO)[C@@H](O)[C@H](O)[C@H]2O)cc(O)c2c1O[C@H](c1ccc(O)cc1)[C@@H](O)C2=O,Activity,Escherichia coli [1],Active
same,Activity,Escherichia coli [2],62%
same,Activity,Escherichia coli [3],Dose-dependent effect
same,Activity,Escherichia coli [4],inactive

# Source: ChEMBL document CHEMBL1158687, “A dihydroflavonol glucoside from Commiphora africana that mediates DNA strand scission” (J Nat Prod, 2005)
